Source: US20260256792A1, “TREATMENT OF CHRONIC SPONTANEOUS URTICARIA BY ADMINISTERING (R)-2-[3-[4-AMINO-3-(2-FLUORO-4-PHENOXY-PHENYL)PYRAZOLO[3,4-D]PYRIMIDIN-1-YL]PIPERIDINE-1-CARBONYL]-4-METHYL-4-[4-(OXETAN-3-YL)PIPERAZIN-1-YL]PENT-2-ENENITRILE” (priority 2023, published 2026)

Test system: moderate-to-severe chronic spontaneous urticaria (CSU)
Experiment: Phase 2 CSU study: urticaria activity score over 7 days (UAS7)
Assay type: in vivo, human
Set-up: key to UAS7 Median / UAS7 Change from baseline Median / UAS7 change from baseline, Q1 / UAS7 change from baseline, Q3 / UAS7 change from baseline, Max / UAS7 Change from baseline LS Mean (SE): UAS7 points; daily UAS score ranges 0–6 points/day, over 7 days
Text: The study comprises a 12 week, randomized, double-blind, placebo-controlled, multi-center, dose-ranging efficacy and safety phase, followed by a 40 week open label extension (OLE) phase (see FIG. 1). The study consists of three phases and an optional OLE phase. […] Clinically, CSU is characterized by the spontaneous and recurrent appearance of pruritic hives. The proposed primary endpoints were the UAS7 at Week 12 in EU and EU reference countries and the ISS7 in the US. Regardless of where a participant was from, all assessments were the same. The UAS7 score is a composite score containing both the HSS7 and the ISS7. This allowed a global assessment of the two key components of urticaria: hives and itch. […] The UAS is a validated PRO measure. […] The daily UAS scores range from 0 to 6 point/day. […] Patients were to complete the UAS using the e-diary. […] The following secondary endpoints were to be analyzed using the same approach as for the primary endpoint: • Change from baseline in UAS7 at Week 4 • Change from baseline in UAS7 at Week 12 (for US and US reference countries) • Change from baseline in ISS7 at Week 12 (except US and US reference countries) • Change from baseline in HSS7 at Week 12 The following responder secondary endpoints were to be analyzed using the Cochran-Mantel-Haenszel test adjusted by region: • Proportion of participants with UAS7<6 at Week 12 • Proportion of participants with UAS7=0 at Week 12 Participants who received selected prohibited medications and/or rescue medications were to be considered as non-responders for time points after the medication usage. For other participants, all available data including those collected during the off-treatment period were to be used to determine the responder/non-responder status. Missing data were to be considered as non-responders.

[1] = Week 3, 400 mg TID, Omalizumab-Naïve
[2] = Week 3, 400 mg TID, Prior Omalizumab Use
[3] = Week 3, 400 mg TID, omalizumab-naive participants
[4] = Week 4, 400 mg BID, ITT population
[5] = Week 4, 400 mg BID, Omalizumab-Naïve
[6] = Week 4, 400 mg BID, Prior Omalizumab Use
[7] = Week 4, 400 mg BID, omalizumab-naive participants
[8] = Week 4, 400 mg QPM, ITT population
[9] = Week 4, 400 mg QPM, Omalizumab-Naïve
[10] = Week 4, 400 mg QPM, Prior Omalizumab Use
[11] = Week 4, 400 mg QPM, omalizumab-naive participants
[12] = Week 4, 400 mg TID, ITT population
[13] = Week 4, 400 mg TID, Omalizumab-Naïve
[14] = Week 4, 400 mg TID, Prior Omalizumab Use

With `CC(C)(C=C(C#N)C(=O)N1CCC[C@@H](n2nc(-c3ccc(Oc4ccccc4)cc3F)c3c(N)ncnc32)C1)N1CCN(C2COC2)CC1` [rilzabrutinib, (R)-2-[3-[4-amino-3-(2-fluoro-4-phenoxy-phenyl)pyrazolo[3,4-d]pyrimidin-1-yl]piperidine-1-carbonyl]-4-methyl-4-[4-(oxetan-3-yl)piperazin-1-yl]pent-2-enenitrile] the “UAS7 Percent change from baseline Mean (SD)” value (from here on “UAS7 Percent change … (SD)”) [1] was −48.87 (33.07) %, the “UAS7 Percent change from baseline Median” value [1] was −48.08% and the “UAS7 Change from baseline Mean (SD)” value [2] was −24.14 (11.99). For the same compound, the “UAS7 Change from baseline Median” value [2] was −24.50, the “UAS7 Median” value [2] was 7.67 and the “UAS7 Percent change … (SD)” value [2] was −71.37 (19.75) %. For the same compound, the “UAS7 Percent change from baseline Median” value [2] was −64.58%, the “Non-responder, UAS7 reduction from baseline of 10 points or more” value (shortened to “Non-responder, UAS7 reduction”) [3] was 14 (40.0) n (%) and the “OR for rilzabrutinib vs. placebo, UAS7 reduction of 10 points or more” value [3] was 2.949. For the same compound, the “RRD (%) for rilzabrutinib vs. placebo, UAS7 reduction of 10 points or more” value (“RRD (%) … UAS7 reduction of 10 points or more” for short) [3] was 27.1 %, the “Responder, UAS7 reduction from baseline of 10 points or more” value [3] was 21 (60.0) n (%) and the “Non-responder, UAS7 reduction” value [4] was 19 (46.3) n (%). The “OR for rilzabrutinib vs. placebo, UAS7 reduction of 10 points or more” value [4] was 1.853, the “RRD (%) … UAS7 reduction of 10 points or more” value [4] was 14.7 % and the “Responder, UAS7 reduction from baseline of 10 points or more” value [4] was 22 (53.7) n (%). The “UAS7 Change from baseline Mean (SD)” value [5] was −13.49 (10.97), the “UAS7 Change from baseline Median” value [5] was −11.00 and the “UAS7 Mean (SD)” value [5] was 15.92 (11.71). For the same compound, the “UAS7 Median” value [5] was 14.00, the “UAS7 Percent change … (SD)” value [5] was −46.55 (35.69) % and the “UAS7 Percent change from baseline Median” value [5] was −41.94%. The “UAS7 Change from baseline Mean (SD)” value [6] was −21.80 (16.62), the “UAS7 Change from baseline Median” value [6] was −26.00 and the “UAS7 Mean (SD)” value [6] was 13.60 (16.55). The “UAS7 Median” value [6] was 3.00, the “UAS7 Percent change … (SD)” value [6] was −62.33 (45.90) % and the “UAS7 Percent change from baseline Median” value [6] was −91.43%. For the same compound, the “Non-responder, UAS7 reduction” value [7] was 17 (48.6) n (%), the “OR for rilzabrutinib vs. placebo, UAS7 reduction of 10 points or more” value [7] was 2.046 and the “RRD (%) … UAS7 reduction of 10 points or more” value [7] was 16.8 %. The “Responder, UAS7 reduction from baseline of 10 points or more” value [7] was 18 (51.4) n (%), the “Non-responder, UAS7 reduction” value [8] was 23 (60.5) n (%) and the “OR for rilzabrutinib vs. placebo, UAS7 reduction of 10 points or more” value [8] was 1.224. The “RRD (%) … UAS7 reduction of 10 points or more” value [8] was 4.4 %, the “Responder, UAS7 reduction from baseline of 10 points or more” value [8] was 15 (39.5) n (%) and the “UAS7 Change from baseline Mean (SD)” value [9] was −9.18 (9.24). The “UAS7 Change from baseline Median” value [9] was −7.00, the “UAS7 Mean (SD)” value [9] was 21.92 (8.82) and the “UAS7 Median” value [9] was 21.00. The “UAS7 Percent change … (SD)” value [9] was −27.91 (26.53) %, the “UAS7 Percent change from baseline Median” value [9] was −21.88% and the “UAS7 Change from baseline Mean (SD)” value [10] was −23.00 (NC). The “UAS7 Change from baseline Median” value [10] was −23.00, the “UAS7 Mean (SD)” value [10] was 18.00 (NC) and the “UAS7 Median” value [10] was 18.00. The “UAS7 Percent change … (SD)” value [10] was −56.10 (NC) %, the “UAS7 Percent change from baseline Median” value [10] was −56.10% and the “Non-responder, UAS7 reduction” value [11] was 23 (62.2) n (%). The “OR for rilzabrutinib vs. placebo, UAS7 reduction of 10 points or more” value [11] was 1.322, the “RRD (%) … UAS7 reduction of 10 points or more” value [11] was 6.0 % and the “Responder, UAS7 reduction from baseline of 10 points or more” value [11] was 14 (37.8) n (%). The “Non-responder, UAS7 reduction” value [12] was 12 (29.3) n (%), the “OR for rilzabrutinib vs. placebo, UAS7 reduction of 10 points or more” value [12] was 3.520 and the “RRD (%) … UAS7 reduction of 10 points or more” value [12] was 29.4 %. For the same compound, the “Responder, UAS7 reduction from baseline of 10 points or more” value [12] was 29 (70.7) n (%), the “UAS7 Change from baseline Mean (SD)” value [13] was −15.51 (9.79) and the “UAS7 Change from baseline Median” value [13] was −14.00. For the same compound, the “UAS7 Mean (SD)” value [13] was 14.65 (9.61), the “UAS7 Median” value [13] was 14.00 and the “UAS7 Percent change … (SD)” value [13] was −51.19 (29.70) %. The “UAS7 Percent change from baseline Median” value [13] was −51.09%, the “UAS7 Change from baseline Mean (SD)” value [14] was −22.94 (13.84) and the “UAS7 Change from baseline Median” value [14] was −22.50. The “UAS7 Mean (SD)” value [14] was 10.08 (10.62), the “UAS7 Median” value [14] was 8.58 and the “UAS7 Percent change … (SD)” value [14] was −67.07 (27.75) %.
